Key:
[1] = tested on: human myeloid leukemia U937 cell line; assay: Cell viability upon exposure of tumor cells to photosensitizer and light; assay type: cell-based; conditions: for cell viability result in words: U937 cells exposed to light in presence of photosensitizer, various concentrations and durations; for percent viability: U937 cells
Method: (§1) Abstract: A class of Type 1 photosensitizer containing fragile —N—N— bonds that produce reactive intermediates upon photoexcitation was prepared and tested in vitro. U937 leukemia cells were incubated with the photosensitizer at various concentrations and irradiated with 325-425 nm light at various durations.
(§2) Cell Viability Measurements: A general procedure is carried out for measuring cell viability upon exposure of tumor cells to a photosensitizer having Formula (FX23) or (FX25) and light. The photosensitizer (FX23) has an absorption maxima (λmax) of 385 nm. The cell viability analysis is carried out using human myeloid leukemia U937 cell line by the standard WST-1 assay. In this procedure, U397 Luekemia cells (0.5×10^6) are plated in standard T-25 cell culture flasks, and are exposed to four controls and a series of test conditions corresponding to a range of photosensitizer concentrations.
(§3) The photosensitizers having formula (FX23) and (FX25) are dissolved in DMSO at an initial concentration of about 8 mM and diluted with water to the final desired value such that amount of DMSO exposed to the cells is below 0.5%. The cells are incubated at 37° C. with various concentrations the photosensitizer for about 30 minutes prior to the exposure of light. […] It should be noted that in the present study, the light source is not optimized with respect to power and wavelength. The viability of cells is assessed after 24 hours following light exposure. The light source is a B-100SP High Intensity Lamp from UVP. Once exposure is complete, cells are processed to determine percent viability using Hank's Balanced Salt Solution (HBSS), Trypan blue stain, and a hemacytometer to count live and dead cells. The number of viable cells is determined and percent viability is determined

[2] = Absorption maxima of photosensitizer; assay type: physicochemical
[3] = Cell viability upon exposure of tumor cells to photosensitizer and light; assay type: cell-based, human; conditions: human, U937 myeloid leukemia cells; U937 cells, 10.0 μM photosensitizer, no light exposure; read-out: percent viability
Method: as §1, §2, §3

Row | SMILES | IC50 ([1]; Homo sapiens, U-937, 20 min, U937 cells exposed to light and the photosensitizer for 20 minutes, read-out: VC50/20 (concentration at which 50% decrease in cell viability is observed)) [nM] | cell viability result in words [1] | percent viability ([1]; 0.16 μM photosensitizer, light exposure 5 minutes (325-425 nm lamp), viability 24 h after exposure) [%] | percent viability ([1]; 0.16 μM photosensitizer, light exposure 10 minutes) [%] | percent viability ([1]; 0.16 μM photosensitizer, light exposure 20 minutes) [%] | percent viability ([1]; 0.32 μM photosensitizer, light exposure 5 minutes) [%] | percent viability ([1]; 0.32 μM photosensitizer, light exposure 10 minutes) [%] | percent viability ([1]; 0.32 μM photosensitizer, light exposure 20 minutes) [%] | percent viability ([1]; 0.63 μM photosensitizer, light exposure 5 minutes) [%] | percent viability ([1]; 0.63 μM photosensitizer, light exposure 10 minutes) [%] | percent viability ([1]; 0.63 μM photosensitizer, light exposure 20 minutes) [%] | absorption maxima (λmax) [2] [nm] | percent viability ([1]; 1.25 μM photosensitizer, light exposure 10 minutes) [%] | percent viability ([1]; 1.25 μM photosensitizer, light exposure 20 minutes) [%] | percent viability ([1]; 5.0 μM photosensitizer, light exposure 10 minutes) [%] | percent viability ([1]; 5.0 μM photosensitizer, light exposure 20 minutes) [%] | percent viability ([1]; 10.0 μM photosensitizer, light exposure 10 minutes) [%] | percent viability ([1]; 10.0 μM photosensitizer, light exposure 20 minutes) [%] | viability at 10 μM [3] [%]
1 | CCOC(=O)NN(C(=O)OCC)c1c2ccccc2cc2ccccc12 [FX23] | 130 ± 30 | concentration-dependent and light exposure time-dependent decrease in cell viability | 78 | 40 | 40 | 41 | 5 | 5 | 5 | 5 | 4 | 385 | – | – | – | – | – | – | –
2 | COc1cc(OC)c(/C=N/Nc2c3ccccc3nc3ccccc23)c(OC)c1 [FX25] | – | concentration-dependent and light exposure time-dependent decrease in cell viability | – | – | – | – | – | – | – | – | – | – | 100 | 100 | 65 | 10 | 40 | 4 | 60

From patent US8731655B2, “Compounds containing acyclic N-N bonds for phototherapy” (Mallinckrodt LLC, priority 2009, dated 2014)
